Laboratory results as given in patent US20230405031A1, “METHODS AND COMPOSITIONS RELATED TO RECEPTOR-MEDIATED GLUCOSE SENSING” (Ohio State Innovation Foundation, priority 2020, published 2023).

Tests used:
[1] = tested on: ERK2 phosphorylation; assay: ERK2 phosphorylation in gastrocnemius after intramuscular injection of STR ligands; format: in vivo; details: intra-muscular injection, anesthetized mice after overnight fast, WT vs T1R2-KO, vs vehicle in contralateral muscle
Protocol: FIGS. 8A-8E show STR signaling involves ERK2 and SIRT1 activation. (8A) ERK1/2 phosphorylation in gastrocnemius from fed mice. Quantitation includes both ERK1 and ERK2 bands (n=6/group). (8B-8C) ERK2 phosphorylation in response to bilateral intramuscular injection of either sucralose or 3-OMG (right gastroc) or vehicle (left gastroc) in anesthetized mice after an overnight fast (n=8/group). (8D) NAD levels in C2C12 cells culture in high (black dots) or low (blue dots) glucose for 54 h. In select cells, equal molarity (20 mM) of glucose (Glu) or 3-OMG was added during the last 6 h (ANOVA). (8E) PGC1a acetylation in gastrocnemius from 5 hours fasted mice using immunoprecipitation (IP) with anti-PGC1a (Millipore ST1202) and then immunoblotting (IB) with anti-PGC1a and anti-acetyl-lysine (CST #9441). IB of PGC1a is shown in input. Student's T-test, p value. Elucidation of signaling pathway leading to PARP1 regulation and NAD^+ bioavailability. The reduced PARP1 activity in T1R2-KO muscles correlates with substantial increases in NAD^+ levels (FIGS. 2C and 3B). STR belong to the Gq family of GPCRs and, in various tissues, activate phospholipase C (PLC)-mediated signaling cascades (9, 62) (FIG. 7). PARP1 is mainly regulated in response to DNA damage (63), but it was reasoned that a downstream effector(s) of PLC-dependent pathway may regulate PARP1 in skeletal muscle. […]

[2] = tested on: C2C12 cells; assay: NAD levels in differentiated C2C12 cells cultured at high or low glucose; format: cell-based; details: 20 mM added during the last 6 h to low-glucose (5 mM) cultured differentiated C2C12 cells, 54 h culture
Protocol: FIGS. 8A-8E show STR signaling involves ERK2 and SIRT1 activation. (8A) ERK1/2 phosphorylation in gastrocnemius from fed mice. Quantitation includes both ERK1 and ERK2 bands (n=6/group). (8B-8C) ERK2 phosphorylation in response to bilateral intramuscular injection of either sucralose or 3-OMG (right gastroc) or vehicle (left gastroc) in anesthetized mice after an overnight fast (n=8/group). (8D) NAD levels in C2C12 cells culture in high (black dots) or low (blue dots) glucose for 54 h. In select cells, equal molarity (20 mM) of glucose (Glu) or 3-OMG was added during the last 6 h (ANOVA). (8E) PGC1a acetylation in gastrocnemius from 5 hours fasted mice using immunoprecipitation (IP) with anti-PGC1a (Millipore ST1202) and then immunoblotting (IB) with anti-PGC1a and anti-acetyl-lysine (CST #9441). IB of PGC1a is shown in input. Student's T-test, p value. Determination of downstream effectors of NAD^+-SIRT axis. To shed light on the link between STR activation and NAD regulation, differentiated C2C12 cells were cultured at high (25 mM) or low (5 mM) glucose for 54 hours and observed an anticipated increase in NAD levels during the low-glucose condition (FIG. 8D) (18, 69). […] Thus, it appears that a STR-mediated regulation of NAD^+-SIRT axis is sufficient to account for key muscle adaptations in T1R2-KO mice. […]

[3] = target: T1, SIRT1 (Homo sapiens, UniProt Q96EB6); details: read-out: Km (affinity for NAD+); cited from earlier work
T1 sequence (Q96EB6 1-747): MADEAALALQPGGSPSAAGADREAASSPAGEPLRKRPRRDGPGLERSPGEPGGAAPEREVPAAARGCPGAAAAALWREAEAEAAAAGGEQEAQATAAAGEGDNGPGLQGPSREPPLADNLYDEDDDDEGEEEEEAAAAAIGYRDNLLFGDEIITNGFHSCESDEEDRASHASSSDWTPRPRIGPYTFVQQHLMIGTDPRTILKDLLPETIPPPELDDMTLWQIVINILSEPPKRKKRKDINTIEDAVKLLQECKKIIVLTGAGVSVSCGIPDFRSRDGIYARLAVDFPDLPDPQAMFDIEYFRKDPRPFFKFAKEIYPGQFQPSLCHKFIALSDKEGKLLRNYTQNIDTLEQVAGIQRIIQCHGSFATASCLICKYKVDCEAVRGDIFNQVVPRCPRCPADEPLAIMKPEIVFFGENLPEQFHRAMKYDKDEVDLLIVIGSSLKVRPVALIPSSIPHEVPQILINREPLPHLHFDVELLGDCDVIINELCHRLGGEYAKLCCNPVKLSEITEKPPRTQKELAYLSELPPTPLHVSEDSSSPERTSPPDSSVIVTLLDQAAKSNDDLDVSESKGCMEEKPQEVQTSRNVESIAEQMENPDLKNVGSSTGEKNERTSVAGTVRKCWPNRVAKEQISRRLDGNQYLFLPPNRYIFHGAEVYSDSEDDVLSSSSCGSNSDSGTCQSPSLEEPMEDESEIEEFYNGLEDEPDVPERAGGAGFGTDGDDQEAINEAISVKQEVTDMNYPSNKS

[4] = target: T2, SIRT2 (Homo sapiens, UniProt Q8IXJ6); details: read-out: Km (affinity for NAD+); cited from earlier work
T2 sequence (Q8IXJ6 1-389): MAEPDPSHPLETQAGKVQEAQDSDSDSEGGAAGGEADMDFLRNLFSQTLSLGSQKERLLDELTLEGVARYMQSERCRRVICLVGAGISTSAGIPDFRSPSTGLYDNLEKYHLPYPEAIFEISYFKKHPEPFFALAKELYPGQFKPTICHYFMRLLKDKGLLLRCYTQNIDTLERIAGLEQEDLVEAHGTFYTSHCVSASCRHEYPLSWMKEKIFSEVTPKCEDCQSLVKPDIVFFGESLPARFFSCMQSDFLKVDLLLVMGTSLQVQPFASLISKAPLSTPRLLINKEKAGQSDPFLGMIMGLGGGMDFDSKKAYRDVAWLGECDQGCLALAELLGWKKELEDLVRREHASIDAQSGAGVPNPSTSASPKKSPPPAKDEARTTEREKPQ

[5] = tested on: muscle fibers; assay: Oxygen flux in permeabilized muscle fibers (high resolution respirometry); design: species or system mice; details: after malate+pyruvate and ADP, data not shown
Description: FIGS. 4A-4H show STRs regulate mitochondrial function and exercise capacity. (4A) Oxygen flux in muscle fibers in response to malate+pyruvate and ADP. […] (4B) Oxygen consumption rate (OCR) in differentiated myoblasts. Oligomycin (Comp V inhibition), FCCP (Carbonyl cyanide-4 (trifluoromethoxy) phenylhydrazone; uncoupler), rotenone (Comp I inhibition) (n=5/group). (4C) Quantitative analysis of lactate, ATP and ADP in gastrocnemius following 5-hours fasting (n=9-11/group). (4D) Succinate dehydrogenase staining in muscle sections. Arrows show SDH staining in gastrocnemius n=6/group). (4E) Immunoblotting of mitochondrial complex proteins with quantitation (n=6/group). (4F) Exercise endurance in mice at […] grade and 20 m/min (n=8/group). (4G) Oxygen consumption and (4H) respiratory exchange ratio (RER) under steady state conditions (plateaued values for at least 10 min) before exhaustion in mice subjected to a submaximal exercise bout as in (4F). Student's t-test, p value for (4B-4H).
ADPr is converted to PRPP, which can be used either for NAD^+ regeneration (salvage pathway), or for nucleotide synthesis (FIG. 2F), showing that ADPr can be a metabolic link between NAD^+ and purine/pyrimidine metabolism. Therefore, it was reasoned that the unprecedented depletion of ADPr in T1R2-KO muscles can be due to reduced NAD-consumption and/or increased PRPP utilization for nucleotide biosynthesis. […]

OC[C@H]1O[C@H](O[C@]2(CCl)O[C@H](CCl)[C@@H](O)[C@@H]2O)[C@H](O)[C@@H](O)[C@H]1Cl [sucralose]
ERK2 phosphorylation [1]: activated ERK2 phosphorylation in WT, but not in T1R2-KO muscles

CO[C@@H]([C@H](O)[C@H](O)CO)[C@@H](O)C=O [3-OMG, 3-O-methylglucose]
ERK2 phosphorylation [1]: activated ERK2 phosphorylation in WT, but not in T1R2-KO muscles | NAD levels [2]: caused a significant drop in NAD, although to a lesser extent than 20 mM glucose

NC(=O)c1ccc[n+]([C@@H]2O[C@H](COP(=O)([O-])OP(=O)(O)OC[C@H]3O[C@@H](n4cnc5c(N)ncnc54)[C@H](O)[C@@H]3O)[C@@H](O)[C@H]2O)c1 [NAD^+, Nicotinamide adenine dinucleotide]
Km [3]: 95 µM | Km [4]: 83 µM

antimycin A
Oxygen flux [5]: suppressed oxygen flux
